pEC50: −log10 of the molar value.
Assays:
Type in all cases: cell-based
VHL = target: T1, VHL (Homo sapiens, UniProt P40337); test: E3 ligase homo-degradation by western blot, VHL; conditions: HEK293 cells, 4 h, 1 μM and 10 μM
T1 construct: western blot analysis of the levels of CRBN and VHL E3 ligase in cell lysate; endogenous in cells; host or cells: HEK293 (ATCC)
Excerpt: 4. Biological experiments
Primary antibodies used for western blotting included anti-human BRD2(1:2000, rabbit monoclonal, Abcam, ab139690), anti-human BRD3 (1:1000, rabbit monoclonal, Abcam, ab264420), anti-human BRD4 (E2A7X) (1:1000, rabbit monoclonal, Cell Signaling Technology, #13440), anti-human VHL (1:1000, rabbit polyclonal, Cell Signaling Technology, #68547), anti-human CRBN (D8H3S) (1:1000, rabbit polyclonal, Cell Signaling Technology, #71810), anti-human alpha Tubulin, clone B-5-1-2 (1:5000, mouse monoclonal, Merck Life Science, # 32-2500).Secondary antibodies used for western blot included: anti-mouse horseradish peroxidase-linked antibody (1:3000, sheep, GE Healthcare Life Sciences, #NA931V), and anti-rabbit horseradish peroxidase-linked antibody (1:8000, donkey, GE Healthcare Life Sciences, #NA934V). Reagent for degradation assay and compounds […]
dr. Serge Van Calenbergh, Ghent University). […]
General method of Western blot: Lysates were sonicated and centrifuged at 4 °C at 20000 g for 15 min, and the supernatants were transferred to new tubes. Protein concentration of cell lysates was measured using the DC Protein Assay kit (BIO-RAD) following manufacturer's instructions. […]
Figure S5 Homo-degradation effect in Dual-ligand PROTACs. […] Subsequently, cell lysates were prepared and the protein levels of CRBN or VHL E3 ligase were assessed by Western blotting. […]

HEK293 cells = test: CellTiter-Glo 2D metabolic activity assay, HEK293; conditions: Homo sapiens, 2D culture, 48 h
Protocol: Figure S5 Homo-degradation effect in Dual-ligand PROTACs. HEK293 cells were treated with all synthesized PROTACs or 2V-alkyne/2P-alkyne for 4 hours. Subsequently, cell lysates were prepared and the protein levels of CRBN or VHL E3 ligase were assessed by Western blotting. (A) Representative image of CRBN or VHL E3 ligase homo-degradation was screened for all PROTACs and commercial single-ligand PROTACs at a concentration of 0.1, 1 and 10 µM, respectively (equivalent volume of DMSO as control group). (B) Representative image of CRBN or VHL E3 ligase homo-degradation was screened for 2P-alkyne or 2V-alkyne at a concentration of 0.1, 1 and 10 µM, respectively (equivalent volume of DMSO as control group). Experiments were performed as three independent replicates.
(§1) 4.4 Cell viability assay on 2D cells cultures
HEK293, HCT116, A549,andSKOV-3 cells were seeded in 96-well tissue culture plates at a density of 2000-3000 cells per well in 100 µl of growth medium and incubated overnight at 37 °C with 5% CO2. The following day, the cells were treated with various concentrations of compounds or 0.05% DMSO for 48 h. […] Luminescence readout (Gen5 Data Analysis Software v3.08.01) was performed to record luminescence. […]

HCT116 cells = test: CellTiter-Glo 2D metabolic activity assay, HCT116; conditions: Homo sapiens, HCT-116, 2D culture, 48 h
Protocol: as §1
HEK293, HCT116, A549,andSKOV-3 cells were seeded in 96-well tissue culture plates at a density of 2000-3000 cells per well in 100 µl of growth medium and incubated overnight at 37 °C with 5% CO2. The following day, the cells were treated with various concentrations of compounds or 0.05% DMSO for 48 h. After treatment, add 100 μl of Cell Titer-Glo® 2.0 Reagent (cat. no. G9243, Promega) in each well, then the 96-well plates were put on an orbital shaker for 10 min and then allow the plate to incubate at room temperature for 10-20min to stabilize the luminescent signal. Luminescence readout (Gen5 Data Analysis Software v3.08.01) was performed to record luminescence.
(1 picture or pasted object on this page, not shown here)

A549 spheroids = test: CellTiter-Glo 3D assay on spheroids; conditions: Homo sapiens, 72 h, read-out: EC50, spheroid metabolic activity
Protocol: 4.5 Cell viability assay on 3D cell cultures
The single cell suspension containing 2.5 ×10^4 cells/ml of A549 or 2 ×10^4 cells/ml of HCT116 were seeded into the U-shaped, 384-well ULA plates (cat. no. MS-9384UZ, S-bio), each well containing 80 μl single cell suspension. The 384-well ULA plates were sealed with Breath-Easy semipermeable tape (cat. no. BEM-1, Diversified Biotech) to prevent evaporation. The spheroids were put into incubator and then cultured at 37 °C and 10% CO2. After 48h of spheroids formation, the spheroids were treated with various concentrations of compounds or 0.05% DMSO. After 72h treatment, each spheroid in the culture medium was pipetted into white micro-96-well plates (cat. no. 236108, ThermoFisher) and an equal volume of Cell Titer-Glo 3D (cat. no. G9683, Promega) reagent was added. Luminescence readouts were the same as described above for 2D culture.

T1 sequence (P40337 whole entry): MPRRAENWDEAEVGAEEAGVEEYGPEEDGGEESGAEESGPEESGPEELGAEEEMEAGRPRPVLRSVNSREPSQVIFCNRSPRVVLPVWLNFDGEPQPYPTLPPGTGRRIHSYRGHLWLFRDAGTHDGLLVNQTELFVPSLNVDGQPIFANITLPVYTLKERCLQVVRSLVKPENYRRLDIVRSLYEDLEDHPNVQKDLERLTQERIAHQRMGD

| Compound | VHL homo-degradation (VHL) | pEC50 (HEK293 cells) | pEC50 (HCT116 cells) | pEC50 (A549 spheroids) |
| --- | --- | --- | --- | --- |
| Cc1ncsc1-c1ccc(C(C)NC(=O)C2CC(O)CN2C(=O)C(NC(=O)COCCOCCNC(=O)CC(NC(=O)CCc2cn(CCOCCOCCOCCOCC(=O)NC(CC(=O)NCCOCCOCCNC(=O)CC3N=C(c4ccc(Cl)cc4)c4c(sc(C)c4C)-n4c(C)nnc43)C(=O)NCCOCCOCCNC(=O)CC3N=C(c4ccc(Cl)cc4)c4c(sc(C)c4C)-n4c(C)nnc43)nn2)C(=O)NCCOCCOCC(=O)NC(C(=O)N2CC(O)CC2C(=O)NC(C)c2ccc(-c3scnc3C)cc2)C(C)(C)C)C(C)(C)C)cc1 (stereo not shown) [2J2V] | did induce homo-degradation of VHL |  |  |  |
| Cc1ncsc1-c1ccc(CNC(=O)C2CC(O)CN2C(=O)C(NC(=O)COCCOCCOCCNC(=O)CC2N=C(c3ccc(Cl)cc3)c3c(sc(C)c3C)-n3c(C)nnc32)C(C)(C)C)cc1 (stereo not shown) [MZ1, reference compound] |  | < 5.00 | 7.00 | 7.10 |

Source: article PMC11462456 (Chemical Science, 2024)
